Assay results from ChEMBL document CHEMBL5038669, “Development of the First Covalent Monopolar Spindle Kinase 1 (MPS1/TTK) Inhibitor” (J Med Chem, 2022).
The source made the active and inactive calls. The calls are words filed in the database; no cut-off is given here.

Assays:
[1] = tested on: SK-HEP1; assay: Antiproliferative activity against human SK-HEP1 cells incubated for 5 days by XTT assay; format: functional, cell-based; details: time 5.0 day
[2] = tested on: SNU-387; assay: Induction of cell senescence in human SNU-387 cells at 200 uM measured up to 5 days by SA-beta-gal-staining based assay; format: functional; details: time day <=5
[3] = molecular target: MAP kinase-activated protein kinase 2 (Homo sapiens, UniProt P49137); assay: Inhibition of human recombinant MAPKAPK2 expressed in Sf9 insect cells using [KKLNRTLSVA] as substrate in presence of [33P]-ATP by radiometric hotspot kinetic assay
[4] = tested on: HCT-116; assay: Induction of apoptosis in human HCT-116 cells assessed as upregulation of phospho-gammaH2A.X expression measured after 3 days by Western blot analysis; format: functional, cell-based; details: time 3.0 day
[5] = tested on: Hep 3B2; assay: Induction of apoptosis in human Hep3B cells assessed as down regulation of cyclin B1 expression at 200 nM measured upto 5 days by Western blot analysis; format: functional, cell-based; details: time day <=5
[6] = molecular target: T1, Dual specificity protein kinase TTK (Homo sapiens, UniProt P33981); assay: Inhibition of recombinant human full length N-terminal GST-fused MPS1 (1 to 857 residues) using histone H3 as substrate by TR-FRET assay
T1 sequence (P33981 whole entry): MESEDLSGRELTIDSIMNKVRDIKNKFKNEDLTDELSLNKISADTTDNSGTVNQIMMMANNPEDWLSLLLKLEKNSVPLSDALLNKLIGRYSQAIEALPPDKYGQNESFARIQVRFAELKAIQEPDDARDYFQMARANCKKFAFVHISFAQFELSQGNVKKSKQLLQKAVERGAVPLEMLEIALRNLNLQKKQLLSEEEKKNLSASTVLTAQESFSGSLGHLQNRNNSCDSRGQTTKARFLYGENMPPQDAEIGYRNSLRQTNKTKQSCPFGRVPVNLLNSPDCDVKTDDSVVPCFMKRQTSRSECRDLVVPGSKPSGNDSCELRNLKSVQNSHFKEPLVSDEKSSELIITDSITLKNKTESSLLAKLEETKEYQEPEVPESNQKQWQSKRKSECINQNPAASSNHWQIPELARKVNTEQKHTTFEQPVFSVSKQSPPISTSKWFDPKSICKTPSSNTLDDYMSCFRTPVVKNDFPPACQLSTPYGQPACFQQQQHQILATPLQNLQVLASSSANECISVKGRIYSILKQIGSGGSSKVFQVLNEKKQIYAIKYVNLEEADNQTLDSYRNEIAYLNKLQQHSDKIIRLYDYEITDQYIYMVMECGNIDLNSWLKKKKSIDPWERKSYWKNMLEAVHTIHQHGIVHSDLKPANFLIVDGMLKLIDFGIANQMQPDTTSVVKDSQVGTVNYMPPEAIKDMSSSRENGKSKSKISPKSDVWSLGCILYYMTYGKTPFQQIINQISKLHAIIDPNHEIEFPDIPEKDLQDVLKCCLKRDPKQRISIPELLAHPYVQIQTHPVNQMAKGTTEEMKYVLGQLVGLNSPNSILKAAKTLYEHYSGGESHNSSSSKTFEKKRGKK

[7] = Stability of compound in glutathione at pH 7.4 assessed as half life by HPLC analysis; format: physicochemical; details: glutathione solution, time 5 min
[8] = tested on: Hep 3B2; assay: Synergistic antiproliferative activity against human Hep3B cells at 200 nM measured after 5 days in presence of navitoclax by crystal violet staining based assay; format: functional, cell-based; details: time 5.0 day
[9] = tested on: SNU-387; assay: Induction of apoptosis in human SNU-387 cells assessed as increase in phospho-gammaH2A.X expression level at 200 nM measured upto 5 days by Western blot analysis; format: functional, cell-based; details: time day <=5
[10] = tested on: Hep 3B2; assay: Induction of apoptosis in human Hep3B cells assessed as increase in phospho-gammaH2A.X expression level at 200 nM measured upto 5 days by Western blot analysis; format: functional, cell-based; details: time day <=5
[11] = tested on: Hep 3B2; assay: Antiproliferative activity against human Hep3B cells incubated for 5 days by XTT assay; format: functional, cell-based; details: time 5.0 day
[12] = tested on: HCC 2998; assay: Antiproliferative activity against human HCC 2998 cells; format: functional, cell-based
[13] = tested on: Hep 3B2; assay: Induction of apoptosis in human Hep3B cells assessed as increase in cleaved caspase-3 level at 200 nM measured upto 5 days by Western blot analysis; format: functional, cell-based; details: time day <=5
[14] = molecular target: Fibroblast growth factor receptor 4 (Homo sapiens, UniProt P22455); assay: Inhibition of human recombinant FGFR4 expressed in Sf9 insect cells using poly[Glu:Tyr] 4:1 as substrate in presence of [33P]-ATP by radiometric hotspot kinetic assay
[15] = tested on: KM12; assay: Antiproliferative activity against human KM12 cells; format: functional, cell-based
[16] = tested on: Hep 3B2; assay: Induction of cell senescence in human Hep3B cells at 200 uM measured up to 5 days by SA-beta-gal-staining based assay; format: functional; details: time day <=5
[17] = molecular target: MAP kinase-activated protein kinase 3 (Homo sapiens, UniProt Q16644); assay: Inhibition of human recombinant MAPKAPK3 expressed in Sf9 insect cells using [KKLNRTLSVA] as substrate in presence of [33P]-ATP by radiometric hotspot kinetic assay
[18] = molecular target: T1, Dual specificity protein kinase TTK; assay: Inhibition of recombinant human full length N-terminal GST-fused MPS1 (1 to 857 residues) using histone H3 as substrate measured immediately in presence of DTT by TR-FRET assay
[19] = tested on: SNU-387; assay: Induction of apoptosis in human SNU-387 cells assessed as increase in p21 expression level at 200 nM measured upto 5 days by Western blot analysis; format: functional, cell-based; details: time day <=5
[20] = tested on: HCT-116; assay: Cell cycle arrest in human HCT-116 cells assessed as accumulation in G2/M phase incubated for 3 days; format: functional, cell-based; details: time 3.0 day
[21] = tested on: SNU-387; assay: Synergistic antiproliferative activity against human SNU-387 cells at 200 nM measured after 5 days in presence of navitoclax by crystal violet staining based assay; format: functional, cell-based; details: time 5.0 day
[22] = tested on: MDA-MB-231; assay: Cytotoxicity against human MDA-MB-231cells assessed as reduction in cell viability incubated for 5 days by XTT assay; format: functional, cell-based; details: time 5.0 day
[23] = molecular target: T2, Dual specificity protein kinase TTK (Homo sapiens) (UniProt P33981); assay: Covalent inhibition of human full length N-terminal GST-fused MPS1 (1 to 857 residues) assessed as Kinact by TR-FRET assay
T2 sequence (whole entry): T1 sequence (P33981 whole entry)

[24] = tested on: SNU-387; assay: Antiproliferative activity against human SNU-387 cells incubated for 5 days by XTT assay; format: functional, cell-based; details: time 5.0 day
[25] = tested on: HLF; assay: Antiproliferative activity against human HLF cells incubated for 5 days by XTT assay; format: functional, cell-based; details: time 5.0 day
[26] = tested on: Hep 3B2; assay: Induction of apoptosis in human Hep3B cells assessed as increase in cleaved PARP level at 200 nM measured upto 5 days by Western blot analysis; format: functional, cell-based; details: time day <=5
[27] = molecular target: T1, Dual specificity protein kinase TTK; assay: Covalent inhibition of human full length N-terminal GST-fused MPS1 (1 to 857 residues) assessed as inhibition constant by TR-FRET assay
[28] = tested on: Huh-7; assay: Induction of cell senescence in human Huh-7 cells at 200 uM measured up to 5 days by SA-beta-gal-staining based assay; format: functional; details: time day <=5
[29] = molecular target: T2, Dual specificity protein kinase TTK (Homo sapiens); assay: Displacement of tracer K9 from NanoLuc-fused MPS1 (unknown origin) expressed in HEK293T cells at 10 fold IC50 preincubated for 2 hrs followed by compound washout by NanoBRET assay; format: cell-based

Chain of MAP kinase-activated protein kinase 3 (Q16644 whole entry, the tested form may be a part): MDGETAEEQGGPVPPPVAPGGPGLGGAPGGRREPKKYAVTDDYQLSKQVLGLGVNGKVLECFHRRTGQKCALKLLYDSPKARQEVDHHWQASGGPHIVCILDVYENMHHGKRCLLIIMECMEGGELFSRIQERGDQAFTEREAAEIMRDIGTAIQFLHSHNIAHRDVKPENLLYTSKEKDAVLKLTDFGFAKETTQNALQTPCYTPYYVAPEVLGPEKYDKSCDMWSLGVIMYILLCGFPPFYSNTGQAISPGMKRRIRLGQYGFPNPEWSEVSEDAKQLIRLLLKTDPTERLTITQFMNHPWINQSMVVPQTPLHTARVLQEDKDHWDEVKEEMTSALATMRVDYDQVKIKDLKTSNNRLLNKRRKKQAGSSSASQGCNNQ
Chain of MAP kinase-activated protein kinase 2 (P49137 whole entry): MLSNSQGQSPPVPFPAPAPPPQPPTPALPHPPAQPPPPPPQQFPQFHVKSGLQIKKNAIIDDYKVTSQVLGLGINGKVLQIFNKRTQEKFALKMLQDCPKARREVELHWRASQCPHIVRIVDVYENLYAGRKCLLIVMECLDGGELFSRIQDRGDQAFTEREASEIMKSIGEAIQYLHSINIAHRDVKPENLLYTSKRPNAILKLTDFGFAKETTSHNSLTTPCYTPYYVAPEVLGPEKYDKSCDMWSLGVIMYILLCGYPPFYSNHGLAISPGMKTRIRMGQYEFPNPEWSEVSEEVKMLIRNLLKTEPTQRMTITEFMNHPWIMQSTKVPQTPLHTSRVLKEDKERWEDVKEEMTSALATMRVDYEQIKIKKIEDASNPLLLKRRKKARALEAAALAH
Chain of Fibroblast growth factor receptor 4 (P22455 whole entry): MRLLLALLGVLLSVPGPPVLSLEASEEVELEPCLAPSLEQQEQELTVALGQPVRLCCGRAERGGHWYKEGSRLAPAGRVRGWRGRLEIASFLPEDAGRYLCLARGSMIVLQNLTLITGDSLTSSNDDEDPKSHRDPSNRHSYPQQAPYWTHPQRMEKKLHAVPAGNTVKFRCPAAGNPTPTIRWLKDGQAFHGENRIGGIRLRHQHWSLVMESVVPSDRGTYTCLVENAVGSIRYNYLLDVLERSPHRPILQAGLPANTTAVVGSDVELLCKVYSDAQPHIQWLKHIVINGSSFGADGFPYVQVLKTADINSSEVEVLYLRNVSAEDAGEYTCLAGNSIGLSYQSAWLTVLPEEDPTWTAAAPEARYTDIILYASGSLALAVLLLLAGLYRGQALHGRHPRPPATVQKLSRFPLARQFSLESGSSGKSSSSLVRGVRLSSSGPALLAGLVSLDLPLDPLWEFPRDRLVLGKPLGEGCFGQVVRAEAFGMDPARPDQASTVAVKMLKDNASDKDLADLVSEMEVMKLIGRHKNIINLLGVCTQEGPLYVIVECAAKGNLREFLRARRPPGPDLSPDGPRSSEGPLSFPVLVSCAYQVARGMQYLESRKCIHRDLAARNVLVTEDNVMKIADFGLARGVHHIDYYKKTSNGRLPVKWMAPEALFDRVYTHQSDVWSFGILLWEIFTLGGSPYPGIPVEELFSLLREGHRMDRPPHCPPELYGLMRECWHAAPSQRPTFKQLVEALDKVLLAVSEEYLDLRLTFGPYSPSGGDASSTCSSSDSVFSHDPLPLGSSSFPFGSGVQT

IC50 [3]: > 5000 nM
IC50 [6]: 13 nM
Ki [6]: 0.83 nM
half-life at 100 µM [7]: 84.5 h
IC50 [14]: 2750 nM
IC50 [17]: > 5000 nM
IC50 [18]: 40.2 nM
Kinact [23]: 0.000242 s⁻¹
Ki [27]: 14.2 nM
Activity [29]: 50%
Structure (SMILES): C=CC(=O)Nc1cc(N2CCN(C)CC2)ccc1Nc1ncc2c(n1)-n1ccc(C(=O)Nc3c(CC)cccc3CC)c1CC2
Activity [1]: Active
Activity [2]: Active
Activity [4]: Active
Activity [5]: Active
Activity [8]: Active
Activity [9]: Active
Activity [10]: Active
Activity [11]: Active
Activity [12]: Active
Activity [13]: Active
Activity [15]: Active
Activity [16]: Active
Activity [19]: Active
Activity [20]: Active
Activity [21]: Active
Activity [22]: Active
Activity [24]: Active
Activity [25]: Active
Activity [26]: Active
Activity [28]: Active
